Where two headings read alike, the source gives them in different places.
Biological target: human PDHK2 (hPDHK2) (Homo sapiens (Human), UniProt Q15119)
Experiment: Inhibitory action of PDHK activity in vitro (kinase reaction, residual PDH activity measured)
Format: biochemical
[1] = PDHK inhibitory activity, class symbol of IC50
[2] = read-out: PDHK inhibitory activity IC50

| SMILES | IC50 [1] [nM] | IC50 [2] [nM] | IC50 (class symbol of IC50, read-out: PDHK inhibitory activity) [nM] |
| --- | --- | --- | --- |
| O=C(c1cc(-c2cnn(CCO)c2)c2c(c1)C(O)(C(F)(F)F)c1ccccc1-2)N1CCC1 (stereo not drawn) [compound 461] | < 100 | 30 | – |
| CN(CC(=O)O)C(=O)COc1ccc2c(c1)C(O)(C(F)(F)F)c1ccccc1-2 (stereo not drawn) [compound 462] | > 1000 | 5980 | – |
| COc1cc(-c2cnn(C)c2)c2c(c1)C(O)(C(F)(F)F)c1ccccc1-2 (stereo not drawn) [compound 463] | < 100 | 47 | – |
| Cn1cc(-c2cc(OCCNC(=O)CCC(=O)C(F)(F)F)cc3c2-c2ccccc2C3(O)C(F)(F)F)cn1 (stereo not drawn) [compound 464] | < 100 | 42 | – |
| CC(C)n1cc(-c2cccc3c2-c2ccccc2C3(O)C(F)(F)F)cn1 (stereo not drawn) [compound 465] | < 100 | 61 | – |
| OC1(C(F)(F)F)c2ccccc2-c2c(-c3cnn(Cc4ccccc4)c3)cccc21 (stereo not drawn) [compound 466] | < 100 | 55 | – |
| O=S1(=O)CCCN1CCOc1ccc2c(c1)C(O)(C(F)(F)F)c1ccccc1-2 (stereo not drawn) [compound 468] | 100 to 1000 | 327 | – |
| O=C1NCCN1CCOc1ccc2c(c1)C(O)(C(F)(F)F)c1ccccc1-2 (stereo not drawn) [compound 469] | 100 to 1000 | 193 | – |
| O=C1OCCCN1CCOc1ccc2c(c1)C(O)(C(F)(F)F)c1ccccc1-2 (stereo not drawn) [compound 470] | 100 to 1000 | 168 | – |
| CN(CCOc1cc(-c2cnn(C)c2)c2c(c1)C(O)(C(F)(F)F)c1ccccc1-2)C(=O)C(C)(C)C (stereo not drawn) [compound 471] | < 100 | 26 | – |
| COC(=O)c1cc(Br)c2c(c1)C(O)(C(F)(F)F)c1ccccc1-2 (stereo not drawn) [compound 472] | 100 to 1000 | 184 | – |
| O=C(c1cc(-c2cnn(CCO)c2)c2c(c1)C(O)(C(F)(F)F)c1ccccc1-2)N1CCCC1 (stereo not drawn) [compound 476] | < 100 | 53 | – |
| O=C(O)CCCOc1cc(Cl)c2c(c1)C(O)(C(F)(F)F)c1ccccc1-2 (stereo not drawn) [compound 478] | 100 to 1000 | 433 | – |
| COC(=O)COc1cc(Cl)c2c(c1)C(O)(C(F)(F)F)c1ccccc1-2 (stereo not drawn) [compound 480] | 100 to 1000 | 553 | – |
| O=C(O)CCCOc1cc(-c2cnn(CCO)c2)c2c(c1)C(O)(C(F)(F)F)c1ccccc1-2 (stereo not drawn) [compound 482] | < 100 | 40 | – |
| O=C(O)Cn1cc(-c2cccc3c2-c2ccccc2C3(O)C(F)(F)F)cn1 (stereo not drawn) [compound 483] | 100 to 1000 | 542 | – |
| O=C1CCCN1CCOc1cc(-c2cnn(CCO)c2)c2c(c1)C(O)(C(F)(F)F)c1ccccc1-2 (stereo not drawn) [compound 484] | < 100 | 24 | – |
| O=C(O)CCn1cc(-c2cccc3c2-c2ccccc2C3(O)C(F)(F)F)cn1 (stereo not drawn) [compound 485] | 100 to 1000 | 117 | – |
| NC(=O)CCn1cc(-c2cccc3c2-c2ccccc2C3(O)C(F)(F)F)cn1 (stereo not drawn) [compound 486] | < 100 | 55 | – |
| CNC(=O)CCn1cc(-c2cccc3c2-c2ccccc2C3(O)C(F)(F)F)cn1 (stereo not drawn) [compound 487] | < 100 | 64 | – |
| CN(C)C(=O)CCn1cc(-c2cccc3c2-c2ccccc2C3(O)C(F)(F)F)cn1 (stereo not drawn) [compound 488] | < 100 | 52 | – |
| CN(CCOc1cc(-c2cnn(C)c2)c2c(c1)C(O)(C(F)(F)F)c1ccccc1-2)C(=O)C(C)(C)CO (stereo not drawn) [compound 489] | < 100 | 22 | – |

| SMILES | IC50 [1] [nM] | IC50 [2] [nM] | IC50 (class symbol of IC50, read-out: PDHK inhibitory activity) [nM] |
| --- | --- | --- | --- |
| O=C1COCCN1CCOc1ccc2c(c1)C(O)(C(F)(F)F)c1ccccc1-2 (stereo not drawn) [compound 490] | 100 to 1000 | 223 | – |
| O=C1CCCN1CCOc1cc(-c2cn[nH]c2)c2c(c1)C(O)(C(F)(F)F)c1ccccc1-2 (stereo not drawn) [compound 491] | < 100 | 20 | – |
| Cc1cc(-c2cnn(CCO)c2)c2c(c1)C(O)(C(F)(F)F)c1ccccc1-2 (stereo not drawn) [compound 492] | < 100 | 40 | – |
| NC(=O)Cn1cc(-c2cccc3c2-c2ccccc2C3(O)C(F)(F)F)cn1 (stereo not drawn) [compound 493] | < 100 | 39 | – |
| CNC(=O)Cn1cc(-c2cccc3c2-c2ccccc2C3(O)C(F)(F)F)cn1 (stereo not drawn) [compound 494] | < 100 | 44 | – |
| CN(C)C(=O)Cn1cc(-c2cccc3c2-c2ccccc2C3(O)C(F)(F)F)cn1 (stereo not drawn) [compound 495] | 100 to 1000 | 119 | – |
| O=C(COc1cc(-c2cnn(CCO)c2)c2c(c1)C(O)(C(F)(F)F)c1ccccc1-2)N1CCC1 (stereo not drawn) [compound 496] | < 100 | 23 | – |
| O=C(COc1cc(-c2cnn(CCO)c2)c2c(c1)C(O)(C(F)(F)F)c1ccccc1-2)N1CC(O)C1 (stereo not drawn) [compound 497] | < 100 | 31 | – |
| O=C(O)CCCOc1cc(-c2cn[nH]c2)c2c(c1)C(O)(C(F)(F)F)c1ccccc1-2 (stereo not drawn) [compound 498] | < 100 | 47 | – |
| CC(=O)N(C)C[C@@H](O)COc1cc(-c2cnn(C)c2)c2c(c1)C(O)(C(F)(F)F)c1ccccc1-2 (stereo partly drawn) [compound 499] | < 100 | 39 | – |
| CC(=O)N(C)C[C@H](O)COc1cc(-c2cnn(C)c2)c2c(c1)C(O)(C(F)(F)F)c1ccccc1-2 (stereo partly drawn) [compound 500] | < 100 | 31 | – |
| CN(CCOc1cc(-c2cnn(C)c2)c2c(c1)C(O)(C(F)(F)F)c1ccccc1-2)C(=O)C(C)(C)O (stereo not drawn) [compound 501] | < 100 | 32 | – |
| NC(=O)c1cc(OCCN2CCCC2=O)cc2c1-c1ccccc1C2(O)C(F)(F)F (stereo not drawn) [compound 502] | < 100 | 48 | – |
| NC(=O)COc1cc(-c2cn[nH]c2)c2c(c1)C(O)(C(F)(F)F)c1ccccc1-2 (stereo not drawn) [compound 503] | < 100 | 45 | – |
| OCCn1cc(-c2cc(F)cc3c2-c2ccccc2C3(O)C(F)(F)F)cn1 (stereo not drawn) [compound 505] | < 100 | 46 | – |
| NC(=O)Cn1cc(-c2cc(Cl)cc3c2-c2ccccc2C3(O)C(F)(F)F)cn1 (stereo not drawn) [compound 506] | < 100 | 30 | – |
| Cc1cc(-c2cnn(CC(N)=O)c2)c2c(c1)C(O)(C(F)(F)F)c1ccccc1-2 (stereo not drawn) [compound 507] | < 100 | 26 | – |
| NC(=O)Cn1cc(-c2cc(OCCC34CC5CC(CC(C5)C3)C4)cc3c2-c2ccccc2C3(O)C(F)(F)F)cn1 (stereo not drawn) [compound 508] | < 100 | 48 | – |
| OCCn1cc(-c2cc(OCCC34CC5CC(CC(C5)C3)C4)cc3c2-c2ccccc2C3(O)C(F)(F)F)cn1 (stereo not drawn) [compound 509] | < 100 | 51 | – |
| O=C(O)CCCOc1cc(-c2cncnc2)c2c(c1)C(O)(C(F)(F)F)c1ccccc1-2 (stereo not drawn) [compound 510] | < 100 | 62 | – |
| CCNC(=O)Cn1cc(-c2cccc3c2-c2ccccc2C3(O)C(F)(F)F)cn1 (stereo not drawn) [compound 511] | < 100 | 56 | – |
| CNC(=O)Cn1cc(-c2cc(C)cc3c2-c2ccccc2C3(O)C(F)(F)F)cn1 (stereo not drawn) [compound 512] | < 100 | 38 | – |

| SMILES | IC50 [1] [nM] | IC50 [2] [nM] | IC50 (class symbol of IC50, read-out: PDHK inhibitory activity) [nM] |
| --- | --- | --- | --- |
| CNC(=O)Cn1cc(-c2cc(Cl)cc3c2-c2ccccc2C3(O)C(F)(F)F)cn1 (stereo not drawn) [compound 513] | < 100 | 32 | – |
| CC(C)NC(=O)Cn1cc(-c2cccc3c2-c2ccccc2C3(O)C(F)(F)F)cn1 (stereo not drawn) [compound 514] | < 100 | 58 | – |
| CNC(=O)Cn1cc(-c2cc(F)cc3c2-c2ccccc2C3(O)C(F)(F)F)cn1 (stereo not drawn) [compound 515] | < 100 | 38 | – |
| O=C(O)Cn1cc(-c2cc(Cl)c3c(c2)C(O)(C(F)(F)F)c2ccccc2-3)cn1 (stereo not drawn) [compound 516] | 100 to 1000 | 110 | – |
| O=C(O)CCn1cc(-c2cc(Cl)c3c(c2)C(O)(C(F)(F)F)c2ccccc2-3)cn1 (stereo not drawn) [compound 517] | < 100 | 57 | – |
| Cn1cc(-c2cc(C(N)=O)c3c(c2)C(O)(C(F)(F)F)c2ccccc2-3)cn1 (stereo not drawn) [compound 518] | < 100 | 54 | – |
| Cc1cc(Cl)c2c(c1)C(O)(C(F)(F)F)c1ccccc1-2 (stereo not drawn) [compound 519] | 100 to 1000 | 418 | – |
| NC(=O)CCn1cc(-c2cc(Cl)c3c(c2)C(O)(C(F)(F)F)c2ccccc2-3)cn1 (stereo not drawn) [compound 521] | < 100 | 36 | – |
| OC1(C(F)(F)F)c2ccccc2-c2c(-c3cnn(C45CC6CC(CC(C6)C4)C5)c3)cccc21 (stereo not drawn) [compound 522] | < 100 | 61 | – |
| CC(C)(C)n1cc(-c2cccc3c2-c2ccccc2C3(O)C(F)(F)F)cn1 (stereo not drawn) [compound 523] | < 100 | 48 | – |
| CC(C)(C)Cn1cc(-c2cccc3c2-c2ccccc2C3(O)C(F)(F)F)cn1 (stereo not drawn) [compound 524] | < 100 | 87 | – |
| OC1(C(F)(F)F)c2ccccc2-c2c(Cl)cc(F)cc21 (stereo not drawn) [compound 525] | 100 to 1000 | 677 | – |
| CC(=O)NCCn1cc(-c2cccc3c2-c2ccccc2C3(O)C(F)(F)F)cn1 (stereo not drawn) [compound 527] | < 100 | 79 | – |
| CC(C)n1cc(-c2cc(C(N)=O)c3c(c2)C(O)(C(F)(F)F)c2ccccc2-3)cn1 (stereo not drawn) [compound 528] | < 100 | 49 | – |
| CCn1cc(-c2cc(C(N)=O)c3c(c2)C(O)(C(F)(F)F)c2ccccc2-3)cn1 (stereo not drawn) [compound 530] | < 100 | 43 | – |
| CC(=O)N(C)CCn1cc(-c2cccc3c2-c2ccccc2C3(O)C(F)(F)F)cn1 (stereo not drawn) [compound 535] | 100 to 1000 | 197 | – |
| NC(=O)c1cc(-c2cnn(CCO)c2)cc2c1-c1ccccc1C2(O)C(F)(F)F (stereo not drawn) [compound 536] | < 100 | 54 | – |
| OC12CC3CC(C1)CC(Cn1cc(-c4cccc5c4-c4ccccc4C5(O)C(F)(F)F)cn1)(C3)C2 (stereo not drawn) [compound 547] | < 100 | 62 | – |
| Cc1nn(C)c(C)c1-c1ccc2c(c1)C(O)(C(F)(F)F)c1ccccc1-2 (stereo not drawn) [compound 555] | – | > 1000 | > 1000 |
| O=C(c1cc(CO)c2c(c1)C(O)(C(F)(F)F)c1ccccc1-2)N1CCC1 (stereo not drawn) [compound 556] | < 100 | 53 | – |
| Cn1cc(-c2cc(CO)cc3c2-c2ccccc2C3(O)C(F)(F)F)cn1 (stereo not drawn) [compound 557] | < 100 | 77 | – |
| Cn1cc(-c2cc(N3CCC(C(=O)O)CC3)cc3c2-c2ccccc2C3(O)C(F)(F)F)cn1 (stereo not drawn) [compound 558] | < 100 | 81 | – |
